We go through 2 compounds from patent US11602520B2, “c-Met regulatory composition and its method for treating liver disease” (priority 2020, dated 2023).

Data set [1] relates to c-Met. Description: Gene expression analysis, real-time qPCR, c-Met. In kind it is cell-based, mice. As for the experimental part: (§1) Normal hepatocytes of FL83B mice are divided into several groups (FL83B 1×10^4 cells/well), and treated with 10 mM acetaminophen for 24 hours respectively to make the hepatic cells in a damaged state, the acetaminophen is removed and then the hepatic cells are treated with different concentrations of the Antrodin A and/or the DMB for 24 hours. Then, the commercially available MTS cell viability analysis kit (CellTiter-Glo® One Solution Assay) is used to analyze the cell viability of each of the groups, the treatment condition of each of the groups of cells and the corresponding survival rate are shown in Table 4 to Table 6 below.
(§2) Real-time qPCR kits are used to analyze the gene expression in cells treated with different concentrations of the Antrodin A and the DMB in Example 2, and the results are shown in Tables 7 to 9 below.
For orientation: Real-time PCR tracks product formation cycle by cycle.

Data set [2] relates to Normal hepatocytes of FL83B mice. The data set can be described thus: Cell viability analysis (1), normal hepatocytes, MTS kit. In kind it is cell-based. The conditions noted are these: for Cell viability (%, relative to the blank group): 24 hours. As for the experimental part: (§3) Normal hepatocytes of FL83B mice are divided into several groups (FL83B 1×10^4 cells/well), an amount of cells in each of the groups is treated under different conditions respectively and cultured for 24 hours. Then, the commercially available MTS cell viability analysis kit (CellTiter-Glo® One Solution Assay) is used to analyze the cell viability of each of the groups, the treatment condition of each of the groups of cells and the corresponding survival rate are shown in Table 1 to Table 3 below.
(Formazan colour is commonly taken as a measure of viable cells.)

Data set [3] has as its system Notch-2. The data set can be described thus: Gene expression analysis, real-time qPCR, Notch-2 RNA. It counts as cell-based, mice. As for the experimental part: as §1, §2
Data set [4] deals with Normal hepatocytes of FL83B mice treated with 10 mM acetaminophen (damaged hepatic cells). The data set can be described thus: Cell viability analysis (2), hepatocytes damaged with 10 mM acetaminophen. In kind it is cell-based. Particulars: after acetaminophen damage. As for the experimental part:
as §1

Data set [5] is described as follows: Cell viability analysis (1), normal hepatocytes, MTS kit. In kind it is cell-based, mice. The conditions noted are these: mouse, FL83B normal hepatocytes, 24 hours, read-out: Cell viability (%, relative to the blank group). As for the experimental part:
as §3

With `CC(C)=CCOc1ccc(C2=C(CC(C)C)C(=O)OC2=O)cc1` [Antrodin A], in data set [1], the “expression level of c-Met in damaged hepatic cells (in words)” value is “increase the expression levels of c-Met and Notch”. Moreover, the “Cell viability (%, relative to the blank group)” value is 95.8 ± 4.8% in data set [2] (Antrodin A 8.75 ppm); 107.1 ± 1.2% in data set [2] (Antrodin A 17.5 ppm); 106.8 ± 6.5% in data set [2] (Antrodin A 35 ppm); 108.5 ± 5.7% in data set [2] (Antrodin A 70 ppm); 50.8 ± 4.4% in data set [2] (Antrodin A 140 ppm); 101.9 ± 10.7% in data set [4] (Antrodin A 17.5 ppm, 24 hours). For the same compound, the “Cell viability (%, relative to the blank group)” value in data set [4] (Antrodin A 35 ppm, 24 hours) was found to be 90.2 ± 9.9%; in data set [4] (Antrodin A 70 ppm, 24 hours) it was 102.7 ± 3.3%. Besides, the “activity and survival rate of the normal hepatic cells (in words)” value in data set [2] (concentration of 8.75 to 70 ppm) was “capable of effectively maintaining and enhancing the activity and survival rate of the normal hepatic cells”. For the same compound, in data set [2] (concentration of 140 ppm), the “toxicity to hepatic cells (in words)” value is given as “toxic to hepatic cells”. Moreover, in data set [3], the “expression level of Notch in damaged hepatic cells (in words)” value was “increase the expression levels of c-Met and Notch”. The “repair of damaged hepatic cells (in words)” value in data set [4] was “capable of repairing the damaged hepatic cells and increasing the activity of the hepatic cells”.
The viability is a read-out of living cells in per cent, often relative to untreated cells. Turning to `COc1cc(C)c(OC)c2c1OCO2` [DMB, 4,7-Dimethoxy-5-methyl-1,3-benzodioxole], in data set [1], the “expression level of c-Met in damaged hepatic cells (in words)” value was “increase the expression levels of c-Met and Notch”. Further, the “toxicity to the normal hepatic cells (in words)” value in data set [2] (various concentrations) is on record as “does not cause toxicity to the normal hepatic cells”. Moreover, the viability at 24 h, 1.25 ppm in data set [5] (DMB 1.25 ppm) was 112 ± 2.4%. The viability at 24 h, 2.5 ppm in data set [5] (DMB 2.5 ppm) was found to be 114 ± 1.5%. The viability at 24 h, 5 ppm in data set [5] (DMB 5 ppm) is 115 ± 2%. Also, the viability at 24 h, 10 ppm in data set [5] (DMB 10 ppm) is 113 ± 3.4%. For the same compound, in data set [5] (DMB 20 ppm), the viability at 24 h, 20 ppm is 111 ± 4%. Besides, the “expression level of Notch in damaged hepatic cells (in words)” value in data set [3] was “increase the expression levels of c-Met and Notch”. Also, in data set [4] (Mus musculus, FL83B, DMB 2.5 ppm, 24 hours, read-out: Cell viability (%, relative to the blank group)), the viability at 2.5 ppm is 114 ± 3.9%. In data set [4] (Mus musculus, FL83B, DMB 5 ppm, 24 hours, read-out: Cell viability (%, relative to the blank group)), the viability at 5 ppm turned out to be 104 ± 4.4%. Further, in data set [4] (Mus musculus, FL83B, DMB 10 ppm, 24 hours, read-out: Cell viability (%, relative to the blank group)), the viability at 10 ppm is 78.2 ± 8.8%. In addition, the viability at 17.5 ppm in data set [4] (Mus musculus, FL83B, DMB 17.5 ppm, 24 hours, read-out: Cell viability (%, relative to the blank group)) is 103 ± 7.7%. Moreover, the “repair of damaged hepatic cells (in words)” value in data set [4] was “capable of repairing the damaged hepatic cells and increasing the activity of the hepatic cells”.
